Measurements reported in US20160050932A1, “SYNERGISTIC COMBINATION OF A CHLOROTOLURON COMPOUND AND TERBUTRYN FOR DRY FILM PROTECTION” (Rohm and Haas Company, priority 2013, published 2016).

Key:
Chlorella sp. ATCC 7516 = test: Algal efficacy testing of dry paint films (modified ASTM 5589, 6-well plates); assay type: cell-based; conditions: 3 weeks; for % inhibition: at the listed total conc, versus blank sample; for Total conc (lowest concentration passing, pass level ≧75% inhibition): total biocide in acrylic/silicone paint, dry film on filter paper
Description: (§1) Slurries containing 33% antimicrobial active ingredient (chlorotoluron) and 45% antimicrobial ingredient terbutryn were post added to a white, acrylic/silicone based outdoor paint free of biocides to give a total active ingredient concentration of 10000 and 1000 ppm respectively. These paints were then diluted with an antimicrobial free acrylic/silicone based paint and mixed to prepare targeted concentrations of antimicrobial compounds for the testing. The total biocides concentrations tested were 125, 250, 500, 1000, 2000 and 5000 ppm. After biocides addition or dilution, the paints were mixed 90 seconds with the horse power shaker (AXEL 75M3372/Agitateur SO-10MI) until uniformity was achieved. Paints containing different antimicrobial compounds at the same levels were mixed together in order to obtain the desired ratio of antimicrobial compounds. After one day, the paints were applied to Schleicher & Schuell filter paper at 280 μm wet film thickness and dried for 3 days at room temperature avoiding direct exposure to sunlight. Square discs (1.6 cm×1.6 cm) were cut out from each panel and were used as the substrate for algal efficacy tests. This sample size allowed for an agar border when the sample disc was placed into the well of the test plate.
(§2) Algal efficacy was tested according to modified ASTM 5589 which is a standard accelerated test method for determining resistance of various coatings (including paints) to algal defacement. To accommodate for high-throughput screening, this method was scaled down from petri dishes to 6-well plates. Bold Modified Basal Freshwater Nutrient Solution was used as growth medium. A single coated filter paper coupon was placed with a pair of sterile forceps at the center of the agar plug (on top) with the painted surface facing upwards. Algal inoculums were prepared by mixing equal concentrations (1×10^6 cfu/ml) and equal volumes of exponentially growing algae cultures.
(§3) Each well that contains a tested coupon was inoculated with 1750 μl of algal suspensions (1×10^6 cfu/ml) making sure that the whole surface (paint film as well as the agar surrounding it) was evenly covered. The plates were incubated at room temp (21° C.-25° C.) with cyclic exposure to light and dark phases, for a period of three weeks. The total area inhibited was evaluated at the end of each week according to percent area covered in 5% increments
(§4) At the end of the three week incubation period, the samples were scored for percent inhibition regarding color intensity compared to the blank sample.
(§5) The SI is calculated based on F. C. Kull et.
(§6) SI value of <1 in the formula indicates a synergism of the blended biocides exists.
(§7) The minimal targeted inhibition was set at 75%, meaning a coupon with at least 75% algal growth inhibition was considered as a pass.

[1] = test system: Stichococcus bacillaris SAG 379-1a / CCAP 379/1a; test: as above; assay type: cell-based; conditions: 3 weeks; for % inhibition: at the listed total conc, versus blank sample; for Total conc (lowest concentration passing, pass level ≧75% inhibition): total biocide in acrylic/silicone paint, dry film on filter paper
Description: as §1, §2, §3, §4, §5, §6, §7

| Compound | % inhibition (Chlorella sp. ATCC 7516) [%] | Total conc (lowest concentration passing, pass level ≧75% inhibition) (Chlorella sp. ATCC 7516) [ppm] | % inhibition [1] [%] | Total conc (lowest concentration passing, pass level ≧75% inhibition) [1] [ppm] |
| --- | --- | --- | --- | --- |
| Cc1ccc(NC(=O)N(C)C)cc1Cl [Chlorotoluron, N′-(3-chloro-4-methylphenyl)-N,N-dimethylurea] | 100 | 1000 | 90 | 500 |
| CCNc1nc(NC(C)(C)C)nc(SC)n1 [Terbutryn, N^2-tert-butyl-N^4-ethyl-6-methylthio-1,3,5-triazine-2,4-diamine] | 90 | 500 | 80 | 2000 |
